Structures are written as SMILES. pIC50: −log10 of the molar value.

The experiment deals with T1, recombinant human GR (Homo sapiens, UniProt P04150).
T1 construct: purchased Panvera/Invitrogen P2812 (kit P2893)
T1 sequence (P04150 1-777): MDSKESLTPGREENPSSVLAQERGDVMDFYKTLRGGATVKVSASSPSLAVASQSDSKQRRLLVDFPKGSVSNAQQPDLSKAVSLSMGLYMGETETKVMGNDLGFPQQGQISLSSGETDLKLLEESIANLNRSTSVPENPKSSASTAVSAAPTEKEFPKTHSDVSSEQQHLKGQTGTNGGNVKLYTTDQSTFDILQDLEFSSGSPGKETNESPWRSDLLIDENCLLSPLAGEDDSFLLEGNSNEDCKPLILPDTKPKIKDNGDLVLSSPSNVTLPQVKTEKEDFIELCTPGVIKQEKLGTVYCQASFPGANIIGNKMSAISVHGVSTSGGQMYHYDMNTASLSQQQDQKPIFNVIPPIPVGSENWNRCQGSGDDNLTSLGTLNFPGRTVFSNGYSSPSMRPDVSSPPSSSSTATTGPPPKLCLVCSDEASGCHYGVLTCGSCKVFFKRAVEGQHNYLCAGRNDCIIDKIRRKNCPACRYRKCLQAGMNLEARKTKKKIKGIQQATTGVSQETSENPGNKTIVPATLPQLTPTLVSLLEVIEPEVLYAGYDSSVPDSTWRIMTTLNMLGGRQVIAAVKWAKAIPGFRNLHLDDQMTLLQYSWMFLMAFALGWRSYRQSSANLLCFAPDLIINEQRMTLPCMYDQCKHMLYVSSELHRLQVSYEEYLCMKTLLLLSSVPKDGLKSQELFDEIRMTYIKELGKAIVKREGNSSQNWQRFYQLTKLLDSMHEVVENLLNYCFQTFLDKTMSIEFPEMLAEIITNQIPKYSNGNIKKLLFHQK
In words: Human Glucocorticoid Receptor (GR) Assay, fluorescence polarization. The class given is binding. The note with it: GS Red tracer, incubated 2 h at r.t., XLfit model 205, read-out: GRhuFL_FP_v2 Mean IC50. Here is the method:
Human Glucocorticoid Receptor (GR) Assay
The assay is based on a commercial kit from Panvera/Invitrogen (Part number P2893). The assay technology is fluorescence polarization. […] The GR and Stabilizing Peptide reagents are stored at −70° C. while the GS Red is stored at −20° C. Also included in the kit are 1M DTT (Panvera, Part number P2325, stored at −20° C.) and GR Screening buffer 10× (Panvera, Part number P2814, stored at −70° C. initially but once thawed stored at r.t.). Avoid repeated freeze/thaws for all reagents. The GR Screening buffer 10× comprises 100 mM potassium phosphate, 200 mM sodium molybdate, 1 mM EDTA and 20% DMSO.
0% control was 100% DMSO and 100% control was […] Dexamethasone. Background solution (8 μL; assay buffer 10×, Stabilizing Peptide, DTT and ice cold MQ water) was added to the background wells. GS Red solution (7 μL; assay buffer 10×, Stabilizing Peptide, DTT, GS Red and ice cold water) was added to all wells except background wells. GR solution (7 μL; assay buffer 10×, Stabilizing Peptide, DTT, GR and ice cold water) was added to all wells. The plate was sealed and incubated in a dark at r.t. for 2 h.
(In general: In fluorescence polarisation assays a small probe gives low polarisation when free and higher when bound to something large.)
Turning to `Cc1cc(F)ccc1[C@@H](Oc1ccc2c(cnn2-c2ccc(F)cc2)c1)[C@H](C)NC(=O)C(F)(F)F` [Example 156, 2,2,2-trifluoro-N-[(1R,2S)-1-(4-fluoro-2-methyl-phenyl)-1-[1-(4-fluorophenyl)indazol-5-yl]oxy-propan-2-yl]acetamide], the pIC50 is 8.38. As to `COCC(=O)N[C@@H](C)[C@H](Oc1ccc2c(cnn2-c2ccc(F)cc2)c1)c1cc(C)ccc1C` [Example 260, N-[(1R,2S)-1-(2,5-dimethylphenyl)-1-[1-(4-fluorophenyl)indazol-5-yl]oxy-propan-2-yl]-2-methoxy-acetamide], the pIC50 is 7.85. Next, `CC(=O)OCC(=O)N[C@@H](C)[C@H](Oc1ccc2c(cnn2-c2ccc(F)cc2)c1)c1ccccc1` [Example 34, [(1R,2S)-1-[1-(4-fluorophenyl)indazol-5-yl]oxy-1-phenyl-propan-2-yl]carbamoylmethyl acetate]: 8.62.

In the case of `CCc1cccc([C@@H](Oc2ccc3c(cnn3-c3ccc(F)cc3)c2)[C@H](C)NC(=O)C(F)(F)F)c1` [Example 22, N-[(1R,2S)-1-(3-ethylphenyl)-1-[1-(4-fluorophenyl)indazol-5-yl]oxy-propan-2-yl]-2,2,2-trifluoro-acetamide], the pIC50 was 8.33. As for `COCC(=O)N[C@@H](C)[C@H](Oc1ccc2c(cnn2-c2ccc(F)cc2)c1)c1ccc(C)c(C)c1` [Example 257, N-[(1R,2S)-1-(3,4-dimethylphenyl)-1-[1-(4-fluorophenyl)indazol-5-yl]oxy-propan-2-yl]-2-methoxy-acetamide], the pIC50 was 7.89. Regarding `COc1cccc([C@@H](Oc2ccc3c(cnn3-c3ccc(F)cc3)c2)[C@H](C)NC(=O)c2nc(C)cs2)c1` [Example 290, N-[(1R,2S)-1-[1-(4-fluorophenyl)indazol-5-yl]oxy-1-(3-methoxyphenyl)propan-2-yl]-4-methyl-1,3-thiazole-2-carboxamide], the pIC50 was 8.51. Take `C[C@H](NC(=O)C(C)(F)F)[C@H](Oc1ccc2c(cnn2-c2ccc(F)cc2)c1)c1cc(F)cc(Cl)c1` [Example 238, N-[(1R,2S)-1-(3-chloro-5-fluoro-phenyl)-1-[1-(4-fluorophenyl)indazol-5-yl]oxy-propan-2-yl]-2,2-difluoro-propanamide]: the pIC50 was 8.17. Next, `COc1cccc([C@@H](Oc2ccc3c(cnn3-c3ccc(F)cc3)c2)[C@H](C)NC(=O)c2sccc2OC)c1` [Example 292, N-[(1R,2S)-1-[1-(4-fluorophenyl)indazol-5-yl]oxy-1-(3-methoxyphenyl)propan-2-yl]-3-methoxy-thiophene-2-carboxamide]: 8.24; `C[C@H](NC(=O)[C@@H]1CCCN1)[C@H](Oc1ccc2c(cnn2-c2ccc(F)cc2)c1)c1ccc2c(c1)OCCO2` [Example 125, (S)-N-((1R,2S)-1-(2,3-dihydrobenzo[b][1,4]dioxin-6-yl)-1-(1-(4-fluorophenyl)-1H-indazol-5-yloxy)propan-2-yl)pyrrolidine-2-carboxamide]: 8.19; `COc1cccc([C@@H](Oc2ccc3c(cnn3-c3ccc(F)cc3)c2)[C@H](C)NC(=O)c2ccsc2)c1` [Example 134, N-[(1R,2S)-1-[1-(4-fluorophenyl)indazol-5-yl]oxy-1-(3-methoxyphenyl)propan-2-yl]thiophene-3-carboxamide]: 8.44.

In the case of `COc1cccc([C@@H](Oc2cc3cnn(-c4ccc(F)cc4)c3cc2C)[C@H](C)NC(=O)C(C)(C)C)c1` [Example 66, N-[(1R,2S)-1-[1-(4-Fluorophenyl)-6-methyl-indazol-5-yl]oxy-1-(3-methoxyphenyl)propan-2-yl]-2,2-dimethyl-propanamide], the pIC50 was 8.38. Next, `C[C@H](NC(=O)CCCN)[C@H](Oc1ccc2c(cnn2-c2ccc(F)cc2)c1)c1ccccc1` [Example 28, 4-Amino-N-[(1R,2S)-1-[1-(4-fluorophenyl)indazol-5-yl]oxy-1-phenyl-propan-2-yl]butanamide]: 7.60; `COc1ccc(F)cc1[C@@H](Oc1ccc2c(cnn2-c2ccc(F)cc2)c1)[C@H](C)NC(=O)c1ncc(C)s1` [Example 202, N-[(1R,2S)-1-(5-fluoro-2-methoxy-phenyl)-1-[1-(4-fluorophenyl)indazol-5-yl]oxy-propan-2-yl]-5-methyl-1,3-thiazole-2-carboxamide]: 8.28; `Cc1ccc([C@@H](Oc2ccc3c(cnn3-c3ccc(F)cc3)c2)[C@H](C)NC(=O)C(C)(C)C)c(C)c1` [Example 176, N-[(1R,2S)-1-(2,4-dimethylphenyl)-1-[1-(4-fluorophenyl)indazol-5-yl]oxy-propan-2-yl]-2,2-dimethyl-propanamide]: 8.31.

For the compound `C[C@H](NC(=O)C(=O)O)[C@H](Oc1ccc2c(cnn2-c2ccc(F)cc2)c1)c1ccccc1` [Example 36, [(1R,2S)-1-[1-(4-fluorophenyl)indazol-5-yl]oxy-1-phenyl-propan-2-yl]carbamoylformic acid], the pIC50 is 8.00. Next, `CCC[C@H](NC(=O)C(C)(C)C)[C@H](Oc1ccc2c(cnn2-c2ccc(F)cc2)c1)c1cccc(OC)c1` [Example 94, N-((1R,2S)-1-(1-(4-fluorophenyl)-1H-indazol-5-yloxy)-1-(3-methoxyphenyl)pentan-2-yl)pivalamide]: 8.51. As for `Cc1ccc([C@@H](Oc2ccc3c(cnn3-c3ccc(F)cc3)c2)[C@H](C)NC(=O)c2ncc(C)s2)c(C)c1` [Example 197, N-[(1R,2S)-1-(2,4-dimethylphenyl)-1-[1-(4-fluorophenyl)indazol-5-yl]oxy-propan-2-yl]-5-methyl-1,3-thiazole-2-carboxamide], the figure is 8.31. Next, `COc1c(C)cc([C@@H](Oc2ccc3c(cnn3-c3ccc(F)cc3)c2)[C@H](C)NC(=O)C(C)(F)F)cc1C` [Example 236, 2,2-difluoro-N-[(1R,2S)-1-[1-(4-fluorophenyl)indazol-5-yl]oxy-1-(4-methoxy-3,5-dimethyl-phenyl)propan-2-yl]propanamide]: 8.14. For `COc1cccc([C@@H](Oc2ccc3c(cnn3-c3ccc(F)cc3)c2)[C@H](C)NC(=O)c2ccc(Cl)s2)c1` [Example 295, 5-chloro-N-[(1R,2S)-1-[1-(4-fluorophenyl)indazol-5-yl]oxy-1-(3-methoxyphenyl)propan-2-yl]thiophene-2-carboxamide], the pIC50 is 8.24. As for `Cc1c(F)cccc1[C@@H](Oc1ccc2c(cnn2-c2ccc(F)cc2)c1)[C@H](C)NC(=O)C(F)(F)F` [Example 167, 2,2,2-trifluoro-N-[(1R,2S)-1-(3-fluoro-2-methyl-phenyl)-1-[1-(4-fluorophenyl)indazol-5-yl]oxy-propan-2-yl]acetamide], the figure is 8.07; as for `C[C@H](NC(=O)C(F)(F)F)[C@H](Oc1ccc2c(cnn2-c2ccc(F)cc2)c1)c1ccc(Cl)c(F)c1` [Example 170, N-[(1R,2S)-1-(4-chloro-3-fluoro-phenyl)-1-[1-(4-fluorophenyl)indazol-5-yl]oxy-propan-2-yl]-2,2,2-trifluoro-acetamide], 8.15. Next, `C[C@H](NC(=O)C(F)(F)F)[C@H](Oc1ccc2c(cnn2-c2ccc(CO)cc2)c1)c1ccccc1` [Example 141, 2,2,2-trifluoro-N-((1R,2S)-1-(1-(4-(hydroxymethyl)phenyl)-1H-indazol-5-yloxy)-1-phenylpropan-2-yl)acetamide]: 8.48.

As usually defined, the pIC50 is the IC50 on a negative log10 scale, so that one unit is a factor of ten.

These data come from patent US8143290B2, “Chemical compounds 572” (AstraZeneca AB, priority 2006, dated 2012).
